Test results as given in patent publication US7214506B2, “Method for treating onychomycosis” (Kaken Pharmaceutical Co., Ltd., priority 1999, dated 2007).
Marks after values point to notes of the source that are not given here.

Columns and labels:
[1] = tested on: Trichophyton mentagrophytes KD-04 strain; assay: Present evaluation method (drug removed by dialysis, viable fungus detected), guinea pig model of interdigital tinea pedis; type: in vivo; settings: five days after the last treatment; for The number of fungus-negative feet/Total number of infected feet, Present evaluation method: right feet, drug removed by dialysis, detection limit 10 CFU/feet
Procedure: (§1) Millipore Filter (made by Millipore Corporation, HA, diameter 47 mm, 0.45 μm) was placed on Brain-Heart-infusion agar medium (available from Nissui Pharmaceutical Co., LTD.), and 10^6 cells of microcondium of Trichophyton mentagrophytes KD-04 strain were applied thereon. The cultivation was carried out at 30° C. under 17% of CO2 for 7 days. After the cultivation, just amount of physiological saline containing 0.05% of Tween 80 was dropped on the filter and arthroconidia were collected using a platinum loop. After a hyphal mass was removed by a filtration with a sterile gauze, the number of arthroconidia in the filtrate was calculated by hemocytometer to adjust in concentration of 1×10^8 arthroconidia/ml to obtain a fungal inocula.
(§2) A guinea pig model of interdigital type of tinea pedis was prepared according to the method of Arika et al (Antimicrobial Agents and Chemotherapy, 36: 2523–2525, 1992). Concretely, in two hind foots of male Hartley strain guinea pigs of 7 weeks age, the interdigital skin was lightly abraded with sandpaper. A paper disc (AAdisc available from Whatmen International Ltd cut in 8×4 mm) moisten with the above-mentioned solution of the inoculated organism was applied onto the region between the interdigital toes of the hind feet and fixed using Self-adhering-Foam Pad (Restone 1560M; available from 3M) and adhesive stretch bandage (ELASTPORE; available from Nichiban Co., Ltd). The paper disc and the bandage were removed seven days after of the infection.
(§3) A marketed 1% lanoconazole solution (commercial name: Astat (trade name) solution) and a solution in which KP-103 was solved in a concentration of 1% in polyethylene grycole #400: ethanol (75:25 v/v) mixture were used as test substance. Each solution in amount of 0.1 ml was applied to the plantar skin once a day from 10 days after the infection for 10 days.
A model was prepared according to Comparative Example 1. Lanoconazole being a test compound was used for a therapeutic experience as 1% solution with the same vehicle as KP-103. […]

[2] = tested on: Trichophyton mentagrophytes SM-110 strain; assay: Evaluation of drug effect on tinea pedis, guinea pig model, present evaluation method; type: in vivo; settings: two days after last treatment; 30 consecutive days; topical 1% solution 0.1 ml or oral 40 mg/kg; detection limit 20 CFU/feet
Procedure: A fungal solution was prepared in the same manner as in the pretreatment of Comparative Example 1 except for changing Trichophyton mentagrophytes KD-04 strain to Trichophyton mentagrophytes SM-110 strain. A guinea pig model of tinea unguium and tinea pedis was prepared in the same manner as in the above-mentioned preparation of the guinea pig model in interdigital tinea pedis except for changing male Hartley strain guinea pigs of 7 weeks age to male Hartley strain guinea pigs of 5 weeks age and except that the paper disc and the bandage was removed 21 days after the infection changing from seven days after the infection. The invasion of dermatophytes in plantar skin and nail plate was observed 60 days after the infection. As test compounds, solutions were prepared by dissolving raw powders of KP-103, amorolfine and terbinafine in a concentration of 1% thereof to mixture solution of polyethylene grycole #400: ethanol (75:25 v/v), respectively. Capsule of terbinafine was prepared by crushing the marketed tablet, suspending in the concentration of 100 mg/ml into Miglyol 812 (available from Mitsuba trade Co., Ltd)with glass homogenizer uniformity, and injecting the resulting suspension into each capsule in the concentration of 40 mg/kg depending on body weight measured on administration day. A solution of KP-103, amorolfine or terbinafine in the amount of 0.1 ml was applied a plantar skin and nail of one foot once a day for 30 consecutive days. In case of terbinafine capsule, one capsule (40 mg/kg) was administered orally. Skin pieces of hind feet were excised from each animal described in Example 4. A removal of the drug and a determination of the remaining drug were carried out in the same as in Example 2 except that dialysis for removing the drug carried out for 3 days and that dialysis water was changed six times in total. The sufficient removal of the remaining drug was confirmed. Then the drug effect was evaluated in the same manner as in Example 4 (detection limit: 20 CFU/feet). Those results were shown in FIG. 4 and Table 4 thereof was made. In FIG. 4, the number of CFU in the skin in each treated group was plotted and the mean number of CFU was shown by horizontal line and numerical value.

[3] = tested on: Trichophyton mentagrophytes KD-04 strain; assay: Conventional method for evaluating drug effect, guinea pig model of interdigital type of tinea pedis; type: in vivo; settings: for The number of fungus-negative feet/Total number of infected feet: 1% solution 0.1 ml topical once a day for 10 days, lanoconazole as marketed Astat solution; for The number of fungus-negative feet/Total number of infected feet, Conventional Method: five days after the last treatment, left feet, 1% solutions in PEG #400:ethanol vehicle
Procedure: as §1, §2, §3
The conventional method was described as follows. For the infected control group without an application of the drug, the KP-103-treated group and the lanoconazole-treated group, 10 guinea pigs (hereinafter referred to “animal”) were employed, respectively. Animals of each group were sacrificed two days after and 30 days after the last treatment. Their two hind feet were excised and wiped with the cotton sweb containing alcohol sufficiently. A skin of whole sole was excised and cut into 15 skin pieces in total including 12 skin pieces from plantar parts and 3 skin pieces from an interdigital part. Each skin pieces were placed on 20 ml of Sabouraud dextrose agar medium (available from Difco laboratories) containing 50 μg of chloramphenicol (available from Wako Pure Chemical Industries, Ltd.), 100 μg of gentamicin (available from Schering-Plough Corporation), 50 μg of 5-fluorocytosine (available from Wako Pure Chemical Industries, Ltd.) and 1 mg of cycloheximide (available from nacalai tesque, Inc.) per ml. An antibiotic substance added to the medium was set to a condition which enable bacteria not to grow and which enable fungi to grow without problem. […] In the evaluation of the effect 30 days after last treatment, two days after the last treatment the treated feet were wiped with a cotton swab containing alcohol and fixed with the bandage in order to prevent a reinfection. The bandage was changed once a week.
A model was prepared according to Comparative Example 1. Lanoconazole being a test compound was used for a therapeutic experience as 1% solution with the same vehicle as KP-103. For the infected control group without an application of a drug, the KP-103-treated group and the lanoconazole-treated group, 20 animals were employed, respectively. The two hind feet were excised from each animal five days after the last treatment in the same manner as in Comparative Example 1. A total of 20 light feet were used for an evaluation by the conventional method, and a total of 20 right feet were used in the present evaluation method. […]

[4] = tested on: Trichophyton mentagrophytes SM-110 strain; assay: Evaluation of drug effect on tinea unguium, guinea pig model, present evaluation method; type: in vivo; settings: two days after last treatment, 30 consecutive days, topical 1% solution 0.1 ml or oral 40 mg/kg; for The number of feet with fungus-negative nail/Total number of infected feet: detection limit 10 CFU/feet
Procedure: A fungal solution was prepared in the same manner as in the pretreatment of Comparative Example 1 except for changing Trichophyton mentagrophytes KD-04 strain to Trichophyton mentagrophytes SM-110 strain.
A guinea pig model of tinea unguium and tinea pedis was prepared in the same manner as in the above-mentioned preparation of the guinea pig model in interdigital tinea pedis except for changing male Hartley strain guinea pigs of 7 weeks age to male Hartley strain guinea pigs of 5 weeks age and except that the paper disc and the bandage was removed 21 days after the infection changing from seven days after the infection. The invasion of dermatophytes in plantar skin and nail plate was observed 60 days after the infection.
As test compounds, solutions were prepared by dissolving raw powders of KP-103, amorolfine and terbinafine in a concentration of 1% thereof to mixture solution of polyethylene grycole #400: ethanol (75:25 v/v), respectively. Capsule of terbinafine was prepared by crushing the marketed tablet, suspending in the concentration of 100 mg/ml into Miglyol 812 (available from Mitsuba trade Co., Ltd)with glass homogenizer uniformity, and injecting the resulting suspension into each capsule in the concentration of 40 mg/kg depending on body weight measured on administration day. A solution of KP-103, amorolfine or terbinafine in the amount of 0.1 ml was applied a plantar skin and nail of one foot once a day for 30 consecutive days. In case of terbinafine capsule, one capsule (40 mg/kg) was administered orally.
Animals were sacrificed two days after the last treatment. One hind foot was excised and wiped sufficiently with the cotton sweb containing alcohol. Nails (three in total) of one hind foot was excised and miced by a scissors. It was transferred into glass homogenizer and was homogenized adding 4 ml double-concentration phosphate buffered saline (Phosphate Buffered Salts, available from Takara Shuzo Co., Ltd.) containing 4% of trypsin derived from pig pancreas (available from BIOZYME Laboratories Limited). The reaction was carried out with shaking at 37° C. for one hour. After a centrifugation, the obtaining precipitate was washed three times by centrifuging with phosphate buffered saline in order to remove trypsin. The precipitate was suspended with 4 ml of distilled water and put into dialysis membrane (fractional molecular weight: 12,000–14,000, made of cellulose, available from VISKASE SALES Corporation). Dialysis was carried out into 3 L of distilled water at 4° C. for 14 days. Dialysis water was replaced twice a day 28 times in total. After a centrifugation, 1 ml of phosphate buffered saline was added to the precipitate obtained by removing the supernatant to prepare a suspension. This suspension was defined as stock solution and was diluted by tenfold. To Sabouraud dextrose agar medium (20 ml) containing the antibiotic substance described in Comparative Example 1 were added 100 μl of the stock solution or the dilution. […] The number of fungus-negative feet in the nail was counted. When the colony was appeared on the medium, the number of colonies (CFU) was counted to calculate the number of colonies in the nail of one foot by the dilution rate. After Kruskal Wallis Test was carried out for the number of fungi in the nail, the multiple comparison was carried out based on Tukey method to analysis the significant difference between groups. Those results were shown in FIG. 3 and Table 3 thereof was made. In FIG. 3, the number of CFU in nails in each treated group was plotted and the mean number of CFU was shown by horizontal line and numerical value.
Using the above-mentioned suspension, sufficient removal of the remaining drug was determined by the present evaluation method in the same manner as in Example 2.

[5] = tested on: Trichophyton; assay: In vitro antifungal activity against dermatophytes; type: cell-based
[6] = tested on: fungus; settings: 20 feet, cited from earlier work
[7] = 30 days after the last treatment
[8] = two days after the last treatment

SMILES | rate of a fungus-negative foot evaluated by the present evaluation method [1] | The number of fungus-negative feet/Total number of infected feet, Present evaluation method [1] | Mean number of fungal cells in the skin (Log CFU ± SD) [2] | The number of feet with fungus-negative skin/Total number of infected feet [2] | The number of fungus-negative feet/Total number of infected feet [3, 7] | The number of fungus-negative feet/Total number of infected feet, Conventional Method [3] | The number of fungus-negative feet/Total number of infected feet [3, 8] | Mean number of fungal cells in the nail (Log CFU ± SD) [4] | The number of feet with fungus-negative nail/Total number of infected feet [4] | growth inhibitory concentration against Trichophyton [5] | in vitro activity against Trichophyton relative to KP-103 [5] | fungus-negative feet ([6]; 2 days after the last treatment) | feet with relapse [6, 7]
C=C1CCN([C@H](C)[C@](O)(Cn2cncn2)c2ccc(F)cc2F)CC1 [KP-103, (2R,3R)-2-(2,4-difluorophenyl)-3-(4-methylenepiperidine-1-yl)-1-(1H-1,2,4-triazole-1-yl)butane-2-ol] | 85% | 17/20 | <1.3** Log CFU | 10/10** | 16/20 | 19/20 | 20/20 | 2.20 ± 0.56 Log CFU | 0/10 | – | – | – | –
CN(C/C=C/C#CC(C)(C)C)Cc1cccc2ccccc12 [Terbinafine solution, terbinafine] | – | – | <1.3** Log CFU | 10/10** | – | – | – | 3.21 ± 0.47 Log CFU | 0/10 | – | – | – | –
N#C/C(=C1/SCC(c2ccccc2Cl)S1)n1ccnc1 (stereo not shown) [Lanoconazole, lanoconazole] | – | 3/20 | – | – | 9/20 | 20/20 | 20/20 | – | – | 15.6 ng/mL | eight-fold more active than KP-103 | all feet out of 20 feet | 11 out of 20
CCC(C)(C)c1ccc(CC(C)CN2C[C@@H](C)O[C@@H](C)C2)cc1 (stereo partly shown) [Amorolfine solution, amorolfine] | – | – | 1.74 ± 0.45 Log CFU | 4/10 | – | – | – | 3.26 ± 0.54 Log CFU | 0/10 | – | – | – | –
